Data set [1] deals with hemorrhagic transformation induced by thrombolytic drug. The experiment in a line: Rat middle cerebral artery autologous thrombosis with rt-PA thrombolysis, cerebral hemorrhage volume. In kind it is in vivo. As to the method: A rat model of middle cerebral artery autologous thrombosis was prepared according to the following method: rats were anesthetized by intraperitoneal injection of 10% […] at 350 mg/kg body weight and fixed on an operating table in a supine position, skin of the rats was routinely disinfected according to aseptic operation procedures, and draping was performed. An incision about 3.0-cm-long was taken from the skin in the middle of the neck, the muscle and the subcutaneous tissue were bluntly separated, the right bilateral common carotid arteries, external carotid arteries, and internal carotid arteries were separated to avoid damage to the vagus nerve, the internal carotid arteries were separated to the skull base, and the external carotid arteries were ligated at the bifurcation of the bilateral common carotid arteries. 0.1 ml of arterial blood from the femoral artery of the rat was taken using a 1-ml syringe, 4 U of thrombin was added, the materials were uniformly mixed and stood for 8-10 min, when the blood was coagulated, and the coagulated blood was injected into a 24 G venous indwelling needle to prepare a thrombus about 1-cm-long followed by a syringe containing 1-2 ml of normal saline. […]
Another 4 healthy rats were taken, sacrificed by excessive anesthesia, and subjected to cardiac perfusion. […] cerebral hemisphere tissues were taken, 0, 0.5, 1, 2, 4, 8, 16, 32, and 50 μL of arterial blood of male SD rats was successively added to each hemisphere tissue, PBS at a pH of 7.4 was added to a total volume of 3 ml, the tissue was homogenized for 30 s and ultrasonically lysed, and centrifugation was performed at 13,000 r/min and 4° C. for 30 min 0.8 mL of Drabkin's reagent was mixed with 0.2 mL of a supernatant of each sample, an obtained mixture was placed in a dark place at a room temperature for 10 min, and an absorbance at a wavelength of 540 nm (absorbance of sample not containing blood was set to 0) was measured. The absorbance was set as a Y-axis and the blood volume in each sample was set as an X-axis to draw a standard curve. […]

In data set [2] the test system is myocardial infarction. The experiment in a line: Isoproterenol myocardial infarction rats, electrocardiogram. Format: in vivo, Wistar male rats. Particulars: rt-PA 5 mg/kg femoral vein, compared with the model group. As to the method:
60 Wistar male rats (SPF grade), weighing 220-260 g, were randomly divided into a myocardial infarction modeling group and a control group according to a random number table, with 12 rats in the control group and 48 rats in the model group. The rats were conventionally fed in separate cages with 4 rats per cage. After a normal electrocardiogram was traced, the rats in the myocardial infarction modeling group were subcutaneously injected with 150 mg·kg^−1·d^−1 of isoproterenol (ISO) in a volume of 0.2 mL/100 g every other 24 h for 2 consecutive days. The rats in the control group were subcutaneously injected with a same amount (0.2 mL/100 g) of normal saline according the same method for 2 consecutive days. The electrocardiogram was monitored 24 h after the second subcutaneous injection of the isoproterenol. […] The ST segment elevation of greater than 0.2 mV in lead II or the formation of Q wave became the standard for myocardial infarction. […]
The rats were anesthetized by inhalation of ether. […] The electrocardiogram of the rat was monitored using the limb leads according to right upper limb-red, left upper limb-yellow, left lower limb-green, and right lower limb-black, an electrocardiograph was turned on at a paper speed of 50 mm/s and a voltage of 1 mv, and the animals were returned to the cages after the electrocardiogram.

In data set [3] the test system is myocardial infarction. Nature of the data set: Isoproterenol myocardial infarction rats, heart weight / body weight. The conditions noted are these: rt-PA 5 mg/kg femoral vein. Format: in vivo, Wistar male rats. As to the method:
60 Wistar male rats (SPF grade), weighing 220-260 g, were randomly divided into a myocardial infarction modeling group and a control group according to a random number table, with 12 rats in the control group and 48 rats in the model group. The rats were conventionally fed in separate cages with 4 rats per cage. After a normal electrocardiogram was traced, the rats in the myocardial infarction modeling group were subcutaneously injected with 150 mg·kg^−1·d^−1 of isoproterenol (ISO) in a volume of 0.2 mL/100 g every other 24 h for 2 consecutive days. The rats in the control group were subcutaneously injected with a same amount (0.2 mL/100 g) of normal saline according the same method for 2 consecutive days. The electrocardiogram was monitored 24 h after the second subcutaneous injection of the isoproterenol. […] The ST segment elevation of greater than 0.2 mV in lead II or the formation of Q wave became the standard for myocardial infarction.
A total of 36 modeled rats were selected from the modeling group and randomly divided into a model group, a thrombolysis group and a thrombolytic drug+icaritin group according to the random number table. […]

Data set [4] has as its system cerebral infarction. The experiment in a line: Same rt-PA thrombolysis model, cerebral infarction volume (rate). Format: in vivo, rats. Particulars: rt-PA 5 mg/kg alone, compared with the model group. As to the method:
An incision about 3.0-cm-long was taken from the skin in the middle of the neck, the muscle and the subcutaneous tissue were bluntly separated, the right bilateral common carotid arteries, external carotid arteries, and internal carotid arteries were separated to avoid damage to the vagus nerve, the internal carotid arteries were separated to the skull base, and the external carotid arteries were ligated at the bifurcation of the bilateral common carotid arteries. 0.1 ml of arterial blood from the femoral artery of the rat was taken using a 1-ml syringe, 4 U of thrombin was added, the materials were uniformly mixed and stood for 8-10 min, when the blood was coagulated, and the coagulated blood was injected into a 24 G venous indwelling needle to prepare a thrombus about 1-cm-long followed by a syringe containing 1-2 ml of normal saline. […] Infarct volume=non-ischemic side hemisphere volume-ischemic side hemisphere non-infarct area volume, and an infarct volume ratio was expressed as the percentage (%) of the infarct volume to the non-ischemic side hemisphere volume.

As for “rt-PA: alteplase (rt-PA), thrombolytic drug, 5 mg/kg via the femoral vein”, the Cerebral hemorrhage volume in data set [1] (rt-PA 5 mg/kg femoral vein 3 h after modeling, 3 h after thrombolysis) was 6.43 ± 0.89; in data set [1] (rt-PA 5 mg/kg femoral vein, 6 h after thrombolysis) it was 9.78 ± 1.01; in data set [1] (rt-PA 5 mg/kg femoral vein, 24 h after thrombolysis), 15.32 ± 2.01. Moreover, in data set [2], the “Pathological Q waves in electrocardiogram” value is listed as “disappeared”. For the same substance, the Whole heart weight in data set [3] was determined as 702.3 ± 10.8 mg. Besides, in data set [3] (model group 4.0, control 2.6), the Heart weight/body weight is on record as 2.8^$ $ mg/g. In addition, in data set [4], the “Pale white area of the infarcted area” value was “significantly decreased”.

The values are drawn from patent US12558343B2, “Medical use of icaritin” (Lunan Pharmaceutical Group Corporation, priority 2020, dated 2026).
